Among the test systems are DMS 114 small cell lung; HCT-15 colon; KM12 colon; KM20L2 colon; SK-MEL-28 melanoma; SNB-78 CNS; UACC-257 melanoma; RXF 393 renal; MCF7 breast; T-47D breast.
What all share (test): NCI-60 cell line screen, 48 h

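All cell lines were grown in 96-well plates and treated with compound for 48 hours. The concentration for 50% growth inhibition is given as GI50. Definition used: TGI = concentration required for complete inhibition of growth.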

In the case of `CCc1ccccc1NC(=O)CCc1n[nH]c(=S)o1`, the TGI with DMS 114 small cell lung is > 100 µM; with HCT-15 colon, 36.8 µM; in the assay with KM12 colon, > 100 µM; with KM20L2 colon, > 100 µM; in the assay on SK-MEL-28 melanoma, > 100 µM; with SNB-78 CNS it was > 100 µM. Moreover, the TGI with UACC-257 melanoma is > 100 µM.
Regarding `CC(=O)OCc1cc(OC(C)=O)cnc1COC(C)=O`, the TGI in the assay on DMS 114 small cell lung, in the assay with HCT-15 colon, with KM12 colon, in the assay on KM20L2 colon, with RXF 393 renal and in the assay with SK-MEL-28 melanoma was > 100 µM in each case. Also, the TGI in the assay on UACC-257 melanoma is > 100 µM.
In the case of `CC(C)NCC(O)COC(=O)c1cccs1` (stereo not given), the TGI with HCT-15 colon, with KM12 colon, with KM20L2 colon, with RXF 393 renal, in the assay with SK-MEL-28 melanoma and in the assay on SNB-78 CNS was > 100 µM throughout. Besides, the TGI with UACC-257 melanoma was > 100 µM.
As for `CC(=O)NC(CCCCNC(=O)N(CCCl)N=O)C(=O)NCc1ccccc1` (stereo not given), the TGI in the assay on DMS 114 small cell lung, in the assay on HCT-15 colon, in the assay with KM12 colon, in the assay on KM20L2 colon, in the assay with SK-MEL-28 melanoma and with UACC-257 melanoma was > 100 µM in each case.
In the case of `Cc1ccc([N+](=O)[O-])cc1NC(=O)C(=O)Cc1occc(=O)c1O`, the TGI in the assay on DMS 114 small cell lung, in the assay on HCT-15 colon, in the assay on KM12 colon, in the assay with KM20L2 colon, with RXF 393 renal and in the assay on SK-MEL-28 melanoma was > 100 µM throughout.
Regarding `C#CCOCn1cnc2c(=S)nc[nH]c21`, the TGI with DMS 114 small cell lung, in the assay with HCT-15 colon, with KM12 colon, in the assay on KM20L2 colon, with RXF 393 renal and with SK-MEL-28 melanoma was > 100 µM throughout. Further, the TGI in the assay with UACC-257 melanoma was > 100 µM.
Consider `CCC1=C(C)/C(=C/c2[nH]c(CBr)c(CC)c2C)N=C1CBr`, for which the TGI turned out to be 27.8 µM in the assay on DMS 114 small cell lung; 27.2 µM in the assay with HCT-15 colon; 26.9 µM with KM12 colon; 32.1 µM with KM20L2 colon; 54 µM with RXF 393 renal; 34.2 µM with SK-MEL-28 melanoma.
`CNNCc1ccc(C(=O)NC(C)C)cc1`: the GI50 with HCT-15 colon, with KM20L2 colon, with RXF 393 renal and in the assay with UACC-257 melanoma was > 500 µM each time. Besides, the TGI in the assay with HCT-15 colon, in the assay on KM12 colon, in the assay with KM20L2 colon, with MCF7 breast, in the assay with RXF 393 renal and with SK-MEL-28 melanoma was > 500 µM each time. Further, the TGI in the assay with SNB-78 CNS, with T-47D breast and in the assay on UACC-257 melanoma was > 500 µM throughout.
For `O=C1C(=O)N(C(=O)c2ccc(Cl)c(Cl)c2)c2ccc(Cl)cc21`, the TGI is 66 µM in the assay on DMS 114 small cell lung; > 100 µM in the assay with KM12 colon; > 100 µM in the assay on RXF 393 renal; > 100 µM with SK-MEL-28 melanoma; > 100 µM in the assay on SNB-78 CNS.
For `CC1(C)OC(C(N)=O)=C(C(N)=O)O1`, the TGI in the assay on DMS 114 small cell lung, in the assay with HCT-15 colon, with KM12 colon, in the assay with KM20L2 colon, with RXF 393 renal and in the assay on SK-MEL-28 melanoma was > 100 µM in each case. For the same compound, in the assay with UACC-257 melanoma, the TGI is > 100 µM.
As for `C[C@@H](CO)OCOCc1ccccc1`, the TGI in the assay with DMS 114 small cell lung, in the assay with HCT-15 colon, in the assay on KM12 colon, in the assay on RXF 393 renal, in the assay with SK-MEL-28 melanoma and in the assay with SNB-78 CNS was > 100 µM in each case. The TGI with UACC-257 melanoma was > 100 µM.
As to `Cc1oc2c(C)c(O)c3c(c2c1C1(C)OCCO1)C(=O)C=C(Cl)C3=O`, the TGI in the assay on HCT-15 colon, in the assay with KM12 colon, with KM20L2 colon, in the assay with RXF 393 renal, in the assay with SK-MEL-28 melanoma and in the assay on SNB-78 CNS was > 100 µM each time. Moreover, the TGI with UACC-257 melanoma is > 100 µM.
Consider `CN[C@]12CC3(C=CC(=O)C=C3)O[C@@]1(Cc1ccc(OC)cc1)N(C)C(=O)N2`, for which the GI50 in the assay with HCT-15 colon is 1.64 µM; in the assay with KM12 colon, 1.69 µM; in the assay on MCF7 breast, 0.778 µM; in the assay on RXF 393 renal, 1.82 µM; in the assay on SK-MEL-28 melanoma, 2.53 µM; in the assay with T-47D breast, 2.12 µM. The GI50 in the assay with UACC-257 melanoma was 3.52 µM. The TGI in the assay with HCT-15 colon came to 10.3 µM; with KM12 colon, 3.54 µM; in the assay with MCF7 breast, 15.1 µM; with RXF 393 renal it was 3.6 µM; with SK-MEL-28 melanoma, 6.75 µM; with T-47D breast it was 7.23 µM. The same compound registered a TGI with UACC-257 melanoma of 19.8 µM.
For `O=C1OCc2c1cc(F)cc2[N+](=O)[O-]`, the GI50 in the assay with HCT-15 colon, with KM12 colon, in the assay on MCF7 breast, in the assay on RXF 393 renal, in the assay with SK-MEL-28 melanoma and with T-47D breast was > 100 µM throughout. The GI50 with UACC-257 melanoma is > 100 µM. For the same compound, the TGI with HCT-15 colon, in the assay with KM12 colon, in the assay on MCF7 breast, in the assay on RXF 393 renal, in the assay on SK-MEL-28 melanoma and with T-47D breast was > 100 µM each time. Besides, in the assay on UACC-257 melanoma, the TGI was > 100 µM.
As for `O=C(Nc1nccs1)c1cc2c(cc1Cl)Sc1nccn1S2(=O)=O`, the GI50 was 12.2 µM with HCT-15 colon; 12.4 µM with KM12 colon; 6.72 µM in the assay on MCF7 breast; 18.9 µM in the assay with RXF 393 renal; 20 µM with SK-MEL-28 melanoma; 23.4 µM in the assay on T-47D breast. Further, the GI50 with UACC-257 melanoma is 13.9 µM. Also, the TGI came out at 33.9 µM with HCT-15 colon; 26.6 µM in the assay on KM12 colon; 19.9 µM in the assay with MCF7 breast; 39.7 µM in the assay on RXF 393 renal; 37.6 µM with SK-MEL-28 melanoma; 64.5 µM with T-47D breast. In the assay with UACC-257 melanoma, this compound showed a TGI of 26.9 µM.
For `COc1cc(/C=C/C(=O)c2ccc(Nc3ncnc4ccccc34)cc2)cc(OC)c1`, the GI50 with HCT-15 colon was 7.63 µM; in the assay on KM12 colon, 1.77 µM; in the assay with MCF7 breast it was 1.84 µM; in the assay on RXF 393 renal, 2.11 µM; in the assay with SK-MEL-28 melanoma, 15.4 µM; in the assay with T-47D breast it was 6.2 µM. Moreover, the GI50 with UACC-257 melanoma is 9.7 µM. Further, the TGI in the assay on HCT-15 colon is 48.7 µM; in the assay with KM12 colon it was 5.38 µM; in the assay with MCF7 breast, 5.79 µM; in the assay with RXF 393 renal, 9.32 µM; with SK-MEL-28 melanoma, 34.4 µM; with T-47D breast, 39.4 µM. Also, in the assay with UACC-257 melanoma, the TGI stood at 34.1 µM.
For the compound `COc1cc(/C=C2\[C@H]3c4c(c(OC)c(C)c(OC)c4OC)C[C@@H](C(=O)N2Cc2ccccc2)N3C(=O)OC(C)C)c(OC)c(C)c1OC`, the TGI in the assay on DMS 114 small cell lung, in the assay on KM12 colon, with KM20L2 colon, in the assay on RXF 393 renal, in the assay with SK-MEL-28 melanoma and in the assay on UACC-257 melanoma was > 100 µM each time.
For the compound `C/C(CC(=O)NNc1ccc([N+](=O)[O-])cc1)=N\Nc1ccc([N+](=O)[O-])cc1`, the GI50 with HCT-15 colon is 19.7 µM; with KM12 colon, 2.12 µM; in the assay with MCF7 breast it was 12.9 µM; in the assay with RXF 393 renal, 17.7 µM; in the assay with SK-MEL-28 melanoma, 31.5 µM; in the assay with T-47D breast, 3.71 µM. The GI50 in the assay on UACC-257 melanoma is 39.6 µM. The TGI is > 100 µM in the assay on HCT-15 colon; > 100 µM in the assay on KM12 colon; > 100 µM in the assay with MCF7 breast; 46.5 µM in the assay with RXF 393 renal; > 100 µM in the assay with SK-MEL-28 melanoma; > 100 µM with T-47D breast. Moreover, the TGI in the assay on UACC-257 melanoma is > 100 µM.
In the case of `COc1ccc(/C(C)=C(\c2ccc(Cl)cc2)c2ccc(OCCN3CCCC3)cc2)cc1F`, the GI50 with HCT-15 colon was 0.848 µM; in the assay on KM12 colon, 1.26 µM; with MCF7 breast, 2.41 µM; in the assay on RXF 393 renal, 3.19 µM; in the assay on SK-MEL-28 melanoma, 3.13 µM; with T-47D breast, 3.3 µM. For the same compound, the GI50 with UACC-257 melanoma is 0.872 µM. Besides, the TGI with HCT-15 colon turned out to be 3.38 µM; in the assay on KM12 colon, 4.5 µM; in the assay on MCF7 breast, 6.15 µM; with RXF 393 renal it was 6.49 µM; in the assay with SK-MEL-28 melanoma, 6.27 µM; in the assay with T-47D breast it was 7.87 µM. The same compound showed a TGI in the assay with UACC-257 melanoma of 3.2 µM.
Consider `O=C1C(=O)c2ccccc2-c2ccccc21`, for which the GI50 with HCT-15 colon was 1.05 µM; in the assay on KM12 colon, 1.86 µM; in the assay on MCF7 breast, 1.67 µM; with RXF 393 renal it was 1.72 µM; in the assay on SK-MEL-28 melanoma, 1.77 µM; in the assay on T-47D breast, 0.49 µM. In addition, the GI50 in the assay with UACC-257 melanoma is 1.52 µM. The TGI in the assay with HCT-15 colon turned out to be 2.92 µM; in the assay with KM12 colon, 3.4 µM; in the assay on MCF7 breast it was 3.8 µM; in the assay on RXF 393 renal it was 3.12 µM; with SK-MEL-28 melanoma it was 3.24 µM; in the assay on T-47D breast, 2.72 µM. This compound also showed a TGI with UACC-257 melanoma of 3.07 µM.
As for `COc1ccc(C(c2ccc(C(C)C)cc(=O)c2O)c2ccc3cccnc3c2O)cc1` (stereo not given), the TGI with DMS 114 small cell lung amounted to 0.645 µM; in the assay on HCT-15 colon, 14.5 µM; in the assay on KM12 colon, 18.7 µM; with SNB-78 CNS, 23.2 µM.
As to `Cc1cc(C)c(O)c(Cc2cccc(Cc3cc(C)cc(C)c3O)c2O)c1`, the TGI in the assay on HCT-15 colon, in the assay on KM12 colon, in the assay on MCF7 breast, in the assay on RXF 393 renal, with SK-MEL-28 melanoma and with T-47D breast was > 100 µM each time. For the same compound, the TGI with UACC-257 melanoma is > 100 µM.

The values are drawn from PubChem BioAssay (NCI).
